{"source": "patent US20150157021A1", "about": "“NEW ANTIFUNGAL COMPOSITIONS” (DSM IP ASSETS B.V., priority 2012, published 2015)", "system": "Botrytis cinerea", "experiment": "Treatment of wounded strawberries inoculated with Botrytis cinerea (Examples 5, 6)", "type": "in vivo", "conditions": "for Observed antifungal activity O (%): strawberries, 20° C.", "procedure": "Twelve fresh, organic strawberries were used per treatment. Each strawberry was wounded with a 0.5 mm long cut and each wound was inoculated with 10 μl of a Botrytis cinerea suspension containing 1×10^5 of spores/ml. After a 3-hour incubation period at 20° C., each strawberry was dipped individually for 1 minute in a freshly prepared aqueous antifungal composition comprising either 500 ppm natamycin (DSM Food Specialties, Delft, The Netherlands), 500 ppm fenhexamid or both. Each antifungal composition also comprised 3.2% (w/w) beeswax, 0.8% (w/w) glycerol, 0.7% (w/w) polyoxyethylene sorbitan monostearate (Tween 60), 0.1% (w/w) polyoxyethylene sorbitan monooleate (Tween 80), 0.05% (w/w) methylhydroxyethyl-cellulose (MHEC), 0.03% (w/w) anti-foaming agent, 0.02% (w/w) xanthan gum, 0.02% (w/w) citric acid, 0.01% (w/w) lactic acid and 0.01% potassium sorbate. A composition without natamycin or fenhexamid was used as control. […] The treated strawberries were incubated in a closed box in the dark at 20° C. for 11 days.\nThe expected antifungal activity (E in %) of the combined antifungal composition comprising both active ingredients was calculated according to the Colby equation (Colby, 1967): […]\nwherein X and Y are the observed antifungal activities (in %) of the individual active ingredients X and Y, respectively.\nThe experiment was conducted as described in Example 5, except for the fact that each wounded and inoculated strawberry was dipped individually for 1 minute in a freshly prepared aqueous antifungal composition comprising either 250 ppm natamycin (DSM Food Specialties, Delft, The Netherlands), 250 ppm fenhexamid or both. The treated strawberries were incubated in a closed box in the dark at 20° C. for 10 days. During incubation, the treated strawberries were assessed on mould growth according to the two methods described in Example 5.", "data": [{"smiles": "C[C@@H]1C/C=C/C=C/C=C/C=C/[C@H](O[C@@H]2O[C@H](C)[C@@H](O)[C@H](N)[C@@H]2O)C[C@@H]2O[C@](O)(C[C@@H](O)C[C@H]3O[C@@H]3/C=C/C(=O)O1)C[C@H](O)[C@H]2C(=O)O", "note": "[Natamycin, natamycin]", "values": [{"measurement": "Number of moulded strawberries/total number of 12 strawberries", "setting": "Day 5, 20° C., 250 ppm natamycin, 250 ppm fenhexamid or both", "value": "9/12"}, {"measurement": "Number of moulded strawberries/total number of 12 strawberries", "setting": "Day 5, 20° C., 250 ppm natamycin, 250 ppm fenhexamid or both, listed as natamycin", "value": 9}, {"measurement": "Number of moulded strawberries/total number of 12 strawberries", "setting": "Day 6-7, 20° C., 250 ppm natamycin, 250 ppm fenhexamid or both", "value": "11/12"}, {"measurement": "Number of moulded strawberries/total number of 12 strawberries", "setting": "Day 6-7, 20° C., 250 ppm natamycin, 250 ppm fenhexamid or both, listed as natamycin", "value": 11}, {"measurement": "Number of moulded strawberries/total number of 12 strawberries", "setting": "Day 7-8, 20° C., 500 ppm natamycin, 500 ppm fenhexamid or both", "value": "12/12"}, {"measurement": "Number of moulded strawberries/total number of 12 strawberries", "setting": "Day 8, 20° C., 250 ppm natamycin, 250 ppm fenhexamid or both", "value": "11/12"}, {"measurement": "Number of moulded strawberries/total number of 12 strawberries", "setting": "Day 8, 20° C., 250 ppm natamycin, 250 ppm fenhexamid or both, listed as natamycin", "value": 11}, {"measurement": "Number of moulded strawberries/total number of 12 strawberries", "setting": "Day 9, 20° C., 500 ppm natamycin, 500 ppm fenhexamid or both", "value": "12/12"}, {"measurement": "Number of moulded strawberries of 12", "setting": "after 6 through 9 days of incubation, 500 ppm natamycin alone or 500 ppm fenhexamid alone", "value": 12}, {"measurement": "Observed antifungal activity O (%)", "setting": "8 days, 250 ppm natamycin, 250 ppm fenhexamid or both", "value": 18, "unit": "%"}, {"measurement": "Observed antifungal activity O (%)", "setting": "9 days, 250 ppm natamycin, 250 ppm fenhexamid or both", "value": 13, "unit": "%"}, {"measurement": "Observed antifungal activity O (%)", "setting": "10 days, 250 ppm natamycin, 250 ppm fenhexamid or both", "value": 4.8, "unit": "%"}, {"measurement": "Observed antifungal activity O (%)", "setting": "10 days, 500 ppm natamycin, 500 ppm fenhexamid or both", "value": 2.4, "unit": "%"}, {"measurement": "Observed antifungal activity O (%)", "setting": "11 days, 500 ppm natamycin, 500 ppm fenhexamid or both", "value": 2.4, "unit": "%"}]}]}
